Results: article PMC3551756, “HIV-1 Fusion Is Blocked through Binding of GB Virus C E2D Peptides to the HIV-1 gp41 Disulfide Loop” (PLoS ONE, 2013)

What was measured:
[1] = biological target: E2_340-Fc / HIV-1 gp41MN interaction (Human immunodeficiency virus type 1 group M subtype B, UniProt P05877); type: binding; conditions: ELISA, immobilized gp41MN, E2_340-Fc constant (5 µg/ml), increasing peptide; three independent experiments each in duplicate
Method: Flat-bottom, 96-well Microtest ELISA plates (Sarstedt, Germany) were coated overnight at 4°C with recombinant HIV-1 gp120 (0.5 µg/ml), gp41 (0.22 µg/ml) proteins, or with streptavidin (4 µg/ml) in coating buffer (0.1 M NaHCO3, 0.1 M Na2CO3, pH 9.87). Nonspecific binding was blocked (blocking buffer: 1% BSA, 0.1% Tween-20 in phosphate buffer, pH 7.2) for 1 h at room temperature, followed by washing steps (wash buffer: 0.1% Tween in phosphate buffer, pH 7.2). […] All plates were then incubated with recombinant E2_340-Fc or Fc protein in serial dilutions in sample buffer (phosphate buffer, pH 7.2) for 3 hr at room temperature. To perform the competitive ELISAs, the recombinant E2_340-Fc protein was adjusted at 5 µg/ml and the monoclonal gp41 antibodies (246-D, F240, T32, D50, 2F5, 4E10, Chessie 8 [all: NIH AIDS Research and Reference Reagent Program], and 5F3 [Polymun, Austria]) at 100 µM. After washing procedure, the plates were incubated for 1 h with polyclonal rabbit anti-human IgG peroxidase antibody (Dako, Germany) 1∶6000 in sample buffer and washed. Plates were developed with TMB peroxidase substrate solution (KPL, USA), or with OPD/H2O2 solution in the dark. Absorbances (ODs) were read at 450 or 492 nm, respectively, using a multi-channel photometer (ELISA-Reader AxSYM, Abbott Laboratory, USA).
Competitive binding of E2 and gp120 peptides (N35, N35s) with recombinant E2_340-Fc protein to immobilized recombinant gp41MN. Simultaneously to E2_340-Fc incubation peptides of E2 or gp120 were added with increasing amounts.

[2] = system: 6-helix bundle (N36/C34-biotin); assay: Inhibition of 6-HB formation, ELISA; type: binding, HIV-1; conditions: mAb NC-1 capture, N36 0.25 µM, C34-biotin 0.25 µM, graded peptide, 30 min 37°C, triplicate
Method: Briefly, 96-well polystyrene plates were coated with the 6-HB-specific monoclonal antibody, NC-1 IgG, (described by) (2 µg/ml in 0.1 M Tris, pH 8.8), and then blocked with 2% non-fat milk. N36 (0.25 µM), the tested peptides and C34 as control were added at graded concentrations into the wells. After incubation for 30 min at 37°C, C34-biotin (0.25 µM) was added, followed by incubation for 45 min at 37°C and washing with wash buffer (PBS containing 0.05% Tween-20) six times. Streptavidin-labeled horseradish peroxidase (Invitrogen, Grand Island, NY) and the substrate 3,3′,5,5′-tetramethylbenzidine (Sigma, St. Louis, MO) were added sequentially. Absorbance at 450 nm (OD450) was measured. The percent inhibition of 6-HB formation by the peptides was calculated as described before.
Figure 5 E2-derived peptides bind to the disulfide loop of gp41. (A) Illustration of gp41 variants (strains IIIB, MN) and peptides (N36, C34) used in ELISA as well as the binding epitopes of different monoclonal gp41 antibodies. Gp41 consists of the N-terminal fusion peptide (FP), the N- and C-heptad repeats (NHR, CHR) that are connected by the disulfide loop region (C-C loop), the membrane proximal external region (MPER), the α-helical transmembrane-spanning domain (TM), and the cytoplasmic tail (CP). […] Each sample was tested in triplicate. This experiment was repeated twice and similar results were obtained. […]

CXCR4 = CXCR4 surface expression, flow cytometry; type: cell-based, human; conditions: PBMC and TZM-bl cells; E2 peptides 25 µM, SDF-1α 1 µg/ml; 6 hr; FACS; RTCN vs mock; average of two independent experiments each in triplicate
Method: (§1) PHA/IL-2-stimulated PBMC or TZM-bl cells were incubated with E2 peptides (25 µM), phorbol 12-myristate 13-acetate (PMA; 40 ng/ml), SDF-1α (1 µg/ml) or RANTES (50 nM) for 6 hr. CD4, CXCR4 and CCR5 surface expression was analyzed by using standard FACS staining protocols. Cells were washed with PBS and incubated for 30 min at 4°C with PE-labeled antibodies (CD4 clone SK3, CXCR4 clone 12G5, and CCR5 clone 2D7, BD Biosciences, Germany). Subsequently, washed cells were resuspended in PBS and analyzed with a FACSCalibur™ flow cytometer (BD Biosciences, Germany).
(§2) The non-HIV-1-inhibitory peptide P28 derived from the C-terminal part of E2 (residue 271 to 290), served as a negative control.
(§3) CD4, CXCR4 and CCR5 expression on PBMC (A) and TZM-bl cells (B) after preincubation with E2 peptides were determined by flow cytometry analysis. […] Percentages illustrate the ratio-to-cell-negative (RTCN) values that were calculated from the percentage of positive cells and the fluorescence intensity of peptide-incubated cells compared to mock-incubated cells. Columns show average values ±SD of two independent experiments each performed in triplicate. *: p<0.05; **: p<0.01 (mock- vs. inhibitor-incubated cells).

CD4 = CD4 surface expression, flow cytometry; type: cell-based, human; conditions: PBMC and TZM-bl cells; E2 peptides 25 µM, PMA 40 ng/ml; 6 hr; FACS; RTCN vs mock; average of two independent experiments each in triplicate
Method: as §1, §2, §3

[3] = system: HIV-1 Env (NL4-3 gp160, X4env) on 293T cells; assay: HIV-1 gp160 (X4env) binding of FITC-labeled E2 peptides, flow cytometry; conditions: FITC-labeled peptides 1 µM; for binding to HIV-1 Env-expressing cells: sCD4 pretreated, 1 h 37°C, X4env- vs vector-transfected 293T cells, three independent experiments each in duplicate; for background attachment to mock- or vector-transfected cells: mock- or vector-transfected 293T cells
Method: 293T cells were transiently transfected with an HIV-1 Env expression vector, coding for the CXCR4-tropic NL4-3 gp160 precursor (X4env) for surface expression of gp120-gp41 Env trimers or empty plasmid as control. After 2 days of cultivation, cells were incubated with 1 µg sCD4 and 1 µM FITC-conjugated E2 peptides for 1 h at 37°C respectively. Subsequently, cells were washed, resuspended in PBS, and analyzed by flow cytometry using a BD™ LSR II flow cytometer (Becton Dickinson Biosciences, Germany). Flow cytometer data were collected with BD FACSDiva™ and analyzed with FCS Express V3. In parallel, gp160 expression was determined by staining with HIV-1 gp120 mAbs (2G12 and 17b) and an anti-human IgG-FITC pAb (Dako, Germany).
Previously, we have shown that the target of the HIV-1-inhibitory E2 peptides is most likely located on the HIV-1 particle, rather than on the cell. The surface of the HIV-1 particle consists of a lipid bilayer with incorporated host cell proteins and a limited number of functional envelope (Env) trimers (on average 14±7). Therefore, we tested whether the HIV-1-inhibitory E2 peptides interact with trimeric HIV-1 Env proteins expressed on the surface of transfected cells. For this purpose, 293T cells were transiently transfected with an HIV-1 Env expression vector, coding for the gp160 precursor of the CXCR4-tropic NL4-3 envelope (X4env). Binding of FITC-labeled E2 peptides was monitored by flow cytometry.
Figure 4 Recombinant E2_340-Fc protein and E2-derived peptides bind HIV-1 gp41. (A) 293T cells expressing NL4-3 envelope (X4env) or empty plasmid as control were incubated with sCD4 and FITC-conjugated E2 peptides, respectively. Peptide binding was analyzed by flow cytometry. Percentages illustrate the increase of cell binding to X4env-transfected cells. The increase is normalized to the background binding of E2 peptides to mock-transfected cells by calculating the RTCN value. […] (C) E2 peptides with increasing amounts were added to recombinant E2_340-Fc protein (at constant concentration) and then transferred to immobilized recombinant gp41MN.

Chain of E2_340-Fc / HIV-1 gp41MN interaction (P05877 514-856): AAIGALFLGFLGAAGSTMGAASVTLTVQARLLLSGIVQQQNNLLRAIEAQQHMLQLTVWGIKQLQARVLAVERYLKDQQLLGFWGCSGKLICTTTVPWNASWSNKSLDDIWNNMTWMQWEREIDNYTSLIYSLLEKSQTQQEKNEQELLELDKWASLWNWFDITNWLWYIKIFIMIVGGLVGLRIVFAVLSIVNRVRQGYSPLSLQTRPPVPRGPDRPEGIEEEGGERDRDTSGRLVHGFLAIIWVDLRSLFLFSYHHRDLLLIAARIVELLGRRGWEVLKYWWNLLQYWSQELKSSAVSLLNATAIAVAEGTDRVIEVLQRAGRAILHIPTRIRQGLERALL

| Compound | competition with E2_340-Fc for gp41 binding [1] | inhibition of 6-HB formation [2] | CXCR4 surface presentation (CXCR4) | CD4 surface presentation (CD4) | binding to HIV-1 Env-expressing cells [3] | background attachment to mock- or vector-transfected cells [3] |
| --- | --- | --- | --- | --- | --- | --- |
| CC(=O)N[C@@H](CC(C)C)C(=O)N[C@@H](CS)C(=O)N[C@@H](CC(=O)O)C(=O)N[C@@H](CS)C(=O)N1CCC[C@H]1C(=O)N[C@@H](CC(N)=O)C(=O)NCC(=O)N1CCC[C@H]1C(=O)N[C@@H](Cc1c[nH]c2ccccc12)C(=O)N[C@H](C(=O)N[C@@H](Cc1c[nH]c2ccccc12)C(=O)N[C@H](C(=O)N1CCC[C@H]1C(=O)N[C@@H](C)C(=O)N[C@@H](Cc1ccccc1)C(=O)N[C@@H](CS)C(=O)N[C@@H](CCC(N)=O)C(=O)N[C@@H](C)C(=O)N[C@H](C(=O)NCC(=O)O)C(C)C)C(C)C)C(C)C [P6-2] | abrogated the protein-protein interaction between HIV-1 gp41 and GBV-C E2 in a dose-dependent manner | Neither P4-7 nor P6-2 was able to interfere with the formation of 6-HB | no relevant effect on HIV-1 receptor presentation | no relevant effect on HIV-1 receptor presentation | significant increase in the binding | background attachment |
| Ac-WDRGNVTLLCDCPNGPWVWV [P4-7, 20 mer peptide presenting amino acids 37 to 56 of the GBV-C E2 protein] | abrogated the protein-protein interaction between HIV-1 gp41 and GBV-C E2 in a dose-dependent manner | Neither P4-7 nor P6-2 was able to interfere with the formation of 6-HB | no relevant effect on HIV-1 receptor presentation | no relevant effect on HIV-1 receptor presentation | significant increase in the binding | background attachment |
